{
  "source": "patent US4130647A",
  "about": "“Methods for treating congestive heart failure and ischemic heart disease” (priority 1977, dated 1978)",
  "key": {"[1]": {"test_system": "patients with chronic left sided congestive heart failure", "test": "Treadmill exercise duration until marked dyspnea, trimazosin (Example 3)", "type": "in vivo, human", "conditions": "for improvement in exercise duration vs. placebo: p<0.025", "excerpt": "Sixteen men between 41 and 66 years of age with chronic left sided congestive heart failure were subjects. Twelve patients had coronary heart disease with an old healed myocardial infarction, one patient had alcoholic cardiomyopathy, and three patients had idiopathic cardiomyopathy as the cause of their chronic heart failure. All 16 patients had cardiomegaly on physical examination and on their chest roentgenogram, a left ventricular third heart sound heard by auscultation, and evidence of pulmonary venous congestion on their chest roentgenogram. Their baseline standing blood pressures ranged between 114 and 150 mm. Hg. systolic and 72 and 100 mm. Hg. diastolic.\nThe patients received digitalis and diuretic therapy for 6 to 48 months. Their dose of digitalis and diuretic was not changed during this study. Except for potassium chloride, no other medications were taken by any of the 16 patients during this study. All patients signed informed consent forms.\nAfter baseline measurements, all 16 patients received one capsule of single-blind placebo three times daily for two weeks. The patients then received in a double-blind, randomized study trimazosin or placebo for six weeks. Eight patients received one placebo capsule three times daily for weeks one and two, two placebo capsules three times daily for weeks three and four, and three placebo capsules three times daily for weeks five and six of the double-blind period. Seven patients received one 50 mg. trimazosin capsule three times daily for weeks one and two, two 50 mg. trimazosin capsules three times daily for weeks three and four, and three 50 mg. trimazosin capsules three times daily for weeks five and six of the double-blind period. One patient (patient number five on trimazosin) received one 50 mg. trimazosin capsule three times daily for 32 days. Their trimazosin dose was not increased after two weeks of this dose because their standing systolic blood pressure was 104/70 mm. Hg.\nTwo practice treadmill tests were performed by all patients prior to the baseline period. The patients performed a multi-stage uninterrupted treadmill exercise test until the onset of marked dyspnea in the baseline period, and approximately two hours after their morning dose of medication after two weeks of single-blind placebo, after three weeks of double-blindmedication, and after six weeks of double-blind medication. The patients exercised at a treadmill speed of 1.7 m.p.h. and a treadmill grade of 0% for the first 3 min., a treadmill speed of 1.7 m.p.h. and a treadmill grade of 10% for the next 3 min., at a treadmill speed of 2.5 m.p.h. and a treadmill grade of 12% for the third 3 min. period, and then at a treadmill speed of 3.4 m.p.h. and a treadmill grade of 14%.\nThe data listed in Tables 1-4 were analyzed using Student's t test for independent means. Fisher's exact test was used to analyze the data on improvement of symptoms and the data on changes in roentgenographic evidence of pulmonary venous congestion."}, "[2]": {"test_system": "patients with congestive heart failure", "test": "Dose-finding of oral trimazosin in congestive heart failure (Example 2)", "type": "in vivo, human", "conditions": "for Change in Heart Rate at Peak / Change in Systolic Pressure at Peak / Time to Peak Effect: individual patients", "protocol": "Studies were performed in male patients with clinical and radiographic evidence of congestive heart failure due to ischemic or primary cardiomyopathy. To be eligible for the study patients had to have supine systolic blood pressure of at least 100 mm. Hg. and a supine resting cardiac index below 2.5 L/min./m^2, as measured by the non-invasive carbon dioxide rebreathing method [Franciosa, et al., J. Lab. Clin. Med., 88, 662 (1976) and Franciosa, et al., Circulation, 55, 449 (1977)]. Six patients met these criteria and were selected for the study.\nAfter obtaining written informed consent, patients were entered into a 2 day dose finding period during which single daily doses of trimazosin were given and blood pressure and heart rate monitored for 4 hours. On day one 100 mg. was given; if no response or side effects occurred, 200 mg. was given the next day. For purposes of this study a response was defined as a fall in supine blood pressure to a level equal to 0.2 × control systolic pressure +76 mm. Hg. This formula was arbitrarily chosen so that patients with control systolic blood pressure as low as 100 mm. Hg. would be included, and their pressures could be reduced to 96 mm. Hg. Upon completion to the dose finding period, no trimazosin was given for the next 24 hours to allow for washout of previous doses. After this, hemodynamic studies were performed employing the predetermined doses; if 200 mg. of trimazosin was ineffective, 300 mg. was given for hemodynamic studies."}, "clinical": {"test": "clinical", "conditions": "human, po"}, "[3]": {"test_system": "forearm veins of patients with congestive heart failure", "test": "Forearm venous capacitance by occlusion plethysmography after trimazosin (Example 2)", "type": "in vivo, human", "protocol": "On the day of hemodynamic studies, diuretics and other vasodilators were withheld but maintenance digitalis doses were given in order to obtain a reasonably steady hemodynamic state. Procainamide was given to the one patient who had been taking it chronically. Right heart catheterization was performed using a triple lumen Swan-Ganz catheter which was inserted percutaneously via an antecubital or femoral vein and positioned with its tip in the pulmonary artery and the proximal lumen in the right atrium [Swan, et al,. N. Engl. J. Med., 283, 447 (1970)]. A brachial artery was cannulated with a short teflon catheter inserted over an 18-guage thin walled needle. Catheters were connected to P23Db Statham pressure transducers and pressures recorded on a Hewlett-Packard multichannel physiological recorder. Transducers were positioned at the mid-chest level with the patient supine, and all measurements were made in this position. Heart rate was monitored from the electrocardiogram. Cardiac outputs were measured by the dye-dilution method using indocyanine green injected into the pulmonary artery and sampled from the brachial artery through a Gilford densitometer connected to the recorder. Forearm venous capacitance was measured by occlusion plethysmography employing a Whitney mercury-in-rubber resistance guage [Cohen, et al., Clin. Sci., 30, 267 (1966) and Mason, et al., Circulation, 32, 756 (1965)]. For this determination, the forearm was elevated and suspended in a cradle. The venous occluding cuff was inflated to 30 mm. Hg. and forearm girth allowed to equilibrate over 2-3 minutes. The change in forearm girth at this point was taken as a measure of venous capacitance.\nHemodynamic measurements were made before and at hourly intervals for 4 hours after administration of trimazosin. […] Systemic vascular resistance was calculated as the difference between means systemic arterial and right atrial pressures divided by cardiac output. Pulmonary vascular resistance was calculated as mean pulmonary arterial pressure divided by cardiac output. […]"}, "[4]": {"conditions": "200 mg. trimazosin oral, mean of 4, ns"}, "[5]": {"conditions": "200 mg. trimazosin, patient no. 4"}},
  "note": "“And” between values parts separate entries of the source, which are not always exact repeats. Equal values may be shown once.",
  "data": [
    {"smiles": "COc1cc2c(N)nc(N3CCN(C(=O)OCC(C)(C)O)CC3)nc2c(OC)c1OC", "note": "[trimazosin, 2-hydroxy-2-methylpropyl 4-(4-amino-6,7,8-trimethoxy-2-quinazolinyl)-1-piperazinecarboxylate]", "values": [
      {"measurement": "Double-blind trimazosin (3 weeks) exercise time", "setting": "[1]; 300 mg. daily (patient 5: 150 mg. daily), individual patients", "result": "180 s and 428 s and 398 s and 280 s and 298 s and 389 s and 476 s and 322 s"},
      {"measurement": "Double-blind trimazosin (6 weeks) exercise time", "setting": "[1]; 450 mg. daily, individual patients", "result": "232 s and 295 s and 406 s and 435 s and 627 s and 527 s and 363 s"},
      {"measurement": "Change from average of baseline and placebo exercise times", "setting": "[1]; 3 weeks, 300 mg. daily (patient 5: 150 mg. daily), individual patients", "result": "+110%"},
      {"measurement": "Double-blind trimazosin (3 weeks) exercise time, mean", "setting": "[1]; 3 weeks, mean, baseline/placebo average 255.5", "result": 346.4, "unit": "s"},
      {"measurement": "improvement in exercise duration vs. placebo", "setting": "[1]; 3 weeks", "result": "significantly greater"},
      {"measurement": "Change from average of baseline and placebo exercise times", "setting": "[1]; 6 weeks, 450 mg. daily, individual patients", "result": "+136% and +122%"},
      {"measurement": "Double-blind trimazosin (6 weeks) exercise time, mean", "setting": "[1]; 6 weeks, 450 mg. daily, mean", "result": 412.1, "unit": "s"},
      {"measurement": "improvement in exercise duration vs. placebo", "setting": "[1]; 6 weeks", "result": "significantly greater"},
      {"measurement": "Change in Heart Rate at Peak", "setting": "[2]; 100 mg. trimazosin oral", "result": "-4 beats/min. and -2 beats/min. and -15 beats/min. and -10 beats/min."},
      {"measurement": "Change in Systolic Pressure at Peak", "setting": "[2]; 100 mg. trimazosin oral", "result": "-4 mm.Hg. and -22 mm.Hg. and -8 mm.Hg. and -16 mm.Hg. and -9 mm.Hg."},
      {"measurement": "Time to Peak Effect", "setting": "[2]; 100 mg. trimazosin oral", "result": "240 min and 120 min and 180 min and 90 min"},
      {"measurement": "Time to Peak Effect, mean", "setting": "[2]; 100 mg. trimazosin oral, mean of 6", "result": 155.0, "unit": "min"},
      {"measurement": "Change in Systolic Pressure at Peak, mean", "setting": "[2]; 100 mg. trimazosin oral, mean of 6, P <0.02", "result": -10.5, "unit": "mm.Hg."},
      {"measurement": "Change in Heart Rate at Peak, mean", "setting": "[2]; 100 mg. trimazosin oral, mean of 6, P <0.05", "result": -6.5, "unit": "beats/min."},
      {"measurement": "desired hypotensive response", "setting": "[2]; 100 mg. trimazosin, of six patients", "result": "2 patients (nos. 5 and 6)"},
      {"measurement": "Change in Heart Rate at Peak", "setting": "[2]; 200 mg. trimazosin oral", "result": "15 beats/min. and -3 beats/min. and 2 beats/min. and -1 beats/min."},
      {"measurement": "Change in Systolic Pressure at Peak", "setting": "[2]; 200 mg. trimazosin oral", "result": "-21 mm.Hg. and -20 mm.Hg. and -8 mm.Hg. and -1 mm.Hg."},
      {"measurement": "Time to Peak Effect", "setting": "[2]; 200 mg. trimazosin oral", "result": "240 min and 90 min and 210 min and 180 min"},
      {"measurement": "Time to Peak Effect, mean", "setting": "[2]; 200 mg. trimazosin oral, mean of 4", "result": 180.0, "unit": "min"},
      {"measurement": "Change in Heart Rate at Peak, mean", "setting": "[2]; [4]", "result": 3.3, "unit": "beats/min."},
      {"measurement": "Change in Systolic Pressure at Peak, mean", "setting": "[2]; [4]", "result": -12.5, "unit": "mm.Hg."},
      {"measurement": "systolic pressure lowered to the desired goal", "setting": "[2]; 200 mg. trimazosin, of four patients", "result": "2 patients (nos. 1 and 2)"},
      {"measurement": "desired reduction in systolic pressure and side effects", "setting": "[2]; 200 mg. trimazosin, patient no. 3", "result": "neither the desired reduction in systolic pressure nor side effects"},
      {"measurement": "side effect", "setting": "[2]; [5]", "result": "orthostatic light-headedness"},
      {"measurement": "supine systolic pressure", "setting": "[2]; [5]", "result": "essentially no fall"},
      {"measurement": "standing systolic pressure", "setting": "[2]; 200 mg. trimazosin, patient no. 4, fell from 103", "result": 91, "unit": "mm. Hg."},
      {"measurement": "half-life", "setting": "clinical; in vivo", "result": "3 to 6", "unit": "h"},
      {"measurement": "Tmax", "setting": "clinical; plasma", "result": "1 to 2", "unit": "h"},
      {"measurement": "increase in forearm venous capacitance", "setting": "[3]; 2 hours after trimazosin", "result": 35, "unit": "%"},
      {"measurement": "forearm venous capacitance", "setting": "[3]; 2 hours after trimazosin, before 0.83 ± 0.18", "result": "1.12 ± 0.22", "unit": "ml./100 gm."},
      {"measurement": "increase in forearm venous capacitance", "setting": "[3]; one patient with normal pulmonary wedge pressure", "result": 50, "unit": "%"}
    ]}
  ]
}
